Data: patent publication US7223865B2, “Chromogenic compounds, and use thereof as enzyme substrates” (Biomerieux, priority 2003, dated 2007)

Columns and labels:
Assay type in all cases: cell-based
Citrobacter koseri (012) = assay: L-alanine-aminopeptidase activity on gelled medium, Example 4; details: 0.3 g/l, after the addition of HCl
Description: (§1) A gelled medium comprising L-Ala-2-MeOAPA or L-Ala-2,5-diMeOAPA is prepared as follows: 46.37 g of Columbia agar are added to 1 liter of distilled water and then autoclaved. This reaction medium is separated into two media of equivalent volume. Each of these media comprises, respectively: 0.3 g/l of L-Ala-2-MeOAPA, introduced by means of a stock solution in DMSO, and 0.3 g/l of L-Ala-2,5-diMeOAPA, also introduced by means of a stock solution in DMSO. Microorganisms derived from the applicant's collection were seeded onto each of the media, by delimitation as three dials, using a suspension at 0.5 McFarland. The dishes were incubated at 37° C. for 24 hours. The color of these colonies and also the intensity of this color were noted after the addition of HCl.

Escherichia coli (032) = assay: as above; details: 0.3 g/l, after the addition of HCl
Description: as §1

Candida albicans (077) = assay: as above; details: 0.3 g/l, after the addition of HCl
Description: as §1, with “The dishes were incubated at 37° C. for 24 hours.” left out

[1] = tested on: Enterobacter cloacae (061); assay: as above; details: 0.3 g/l, after the addition of HCl
Description: as §1, with “The dishes were incubated at 37° C. for 24 hours.” left out

[2] = tested on: Enterococcus faecalis (117); assay: as above; details: 0.3 g/l, after the addition of HCl
Description: as §1, with “The dishes were incubated at 37° C. for 24 hours.” left out

[3] = tested on: Klebsiella pneumoniae (023); assay: as above; details: 0.3 g/l, after the addition of HCl
Description: as §1, with “The dishes were incubated at 37° C. for 24 hours.” left out

Listeria innocua (036) = assay: as above; details: 0.3 g/l, after the addition of HCl
Description: as §1, with “The dishes were incubated at 37° C. for 24 hours.” left out

Proteus mirabilis (037) = assay: as above; details: 0.3 g/l, after the addition of HCl
Description: as §1, with “The dishes were incubated at 37° C. for 24 hours.” left out

[4] = tested on: Staphylococcus aureus (035); assay: as above; details: 0.3 g/l, after the addition of HCl
Description: as §1, with “The dishes were incubated at 37° C. for 24 hours.” left out

[5] = tested on: Streptococcus agalactiae (001); assay: as above; details: 0.3 g/l, after the addition of HCl
Description: as §1, with “The dishes were incubated at 37° C. for 24 hours.” left out

Candida albicans = assay: L-alanine-aminopeptidase activity on gelled medium, Example 1; details: 0.3 g/l, 24 hours
Description: (§2) A gelled medium comprising L-alanyl-9-(4-amino-styryl)acridine (hereinafter referred to as L-Ala-4-ASA) or L-alanyl-aminophenylacridine (hereinafter referred to as L-Ala-APA) is prepared as follows: 46.37 g of Columbia agar are added to 1 liter of distilled water and then autoclaved. This reaction medium is separated into two media of equivalent volume. Each of these media comprises, respectively: 0.3 g/l of L-Ala-4-ASA provided by means of the stock solution in DMSO, and 0.3 g/l of L-Ala-APA also provided by means of a stock solution in DMSO.
(§3) Microorganisms derived from the applicant's collection were seeded onto each of the media, by delimitation as three dials, using a suspension at 0.5 McFarland. The dishes were incubated at 37° C. for 24 hours. The colonies formed were examined visually after incubation for 24 hours. The color of these colonies was noted before and after addition of a drop of hydrochloric acid.

Citrobacter koseri = assay: as above; details: 0.3 g/l, 24 hours
Description: as §2, §3

Enterobacter cloacae = assay: as above; details: 0.3 g/l, 24 hours
Description: as §2, §3

Enterococcus faecalis = assay: as above; details: 0.3 g/l, 24 hours
Description: as §2, §3

Escherichia coli = assay: as above; details: 0.3 g/l, 24 hours
Description: as §2, §3

Klebsiella pneumoniae = assay: as above; details: 0.3 g/l, 24 hours
Description: as §2, §3

Listeria innocua = assay: as above; details: 0.3 g/l, 24 hours
Description: as §2, §3

Proteus mirabilis = assay: as above; details: 0.3 g/l, 24 hours
Description: as §2, §3

Staphylococcus aureus = assay: as above; details: 0.3 g/l, 24 hours
Description: as §2, §3

Streptococcus agalactiae = assay: as above; details: 0.3 g/l, 24 hours
Description: as §2, §3

With `COc1cc(-c2c3ccccc3nc3ccccc23)ccc1NC(=O)[C@H](C)N` [L-Ala-2-MeOAPA, L-alanyl-2-methoxy-aminophenylacridine] the Color (Citrobacter koseri (012); 24 H) was “orange”, the Intensity (Citrobacter koseri (012); 24 H) was 2 and the Color (Citrobacter koseri (012); 48 h) was “pink”. The Intensity (Citrobacter koseri (012); 48 h) was 3.5, the Color (Escherichia coli (032); 24 H) was “orange” and the Intensity (Escherichia coli (032); 24 H) was 0.5. For the same compound, the Color (Escherichia coli (032); 48 h) was “pink”, the Intensity (Escherichia coli (032); 48 h) was 3.5 and the Color (Candida albicans (077); 24 H) was “inhibited”. The Color (Candida albicans (077); 48 h) was “inhibited”, the Color ([1]; 24 H) was “pink” and the Intensity ([1]; 24 H) was 2. For the same compound, the Color ([1]; 48 h) was “pink”, the Intensity ([1]; 48 h) was 2 and the Color ([2]; 24 H) was “inhibited”. For the same compound, the Color ([2]; 48 h) was “inhibited”, the Color ([3]; 24 H) was “pink” and the Intensity ([3]; 24 H) was 3. The Color ([3]; 48 h) was “pink”, the Intensity ([3]; 48 h) was 3.5 and the Color (Listeria innocua (036); 24 H) was “colorless*”. The Intensity (Listeria innocua (036); 24 H) was 0, the Color (Listeria innocua (036); 48 h) was “colorless*” and the Intensity (Listeria innocua (036); 48 h) was 0. For the same compound, the Color (Proteus mirabilis (037); 24 H) was “orange”, the Intensity (Proteus mirabilis (037); 24 H) was 1 and the Color (Proteus mirabilis (037); 48 h) was “orange”. The Intensity (Proteus mirabilis (037); 48 h) was 1.5, the Color ([4]; 24 H) was “colorless*” and the Intensity ([4]; 24 H) was 0. For the same compound, the Color ([4]; 48 h) was “colorless*”, the Intensity ([4]; 48 h) was 0 and the Color ([5]; 24 H) was “inhibited”. For the same compound, the Color ([5]; 48 h) was “inhibited”.
In the case of `C[C@H](N)C(=O)Nc1ccc(C=Cc2c3ccccc3nc3ccccc23)cc1` [L-Ala-4-ASA, L-alanyl-9-(4-aminostyryl)acridine], the color of colonies (Candida albicans; with HCl) is reported as “colorless”, the color of colonies (Candida albicans; without HCl) is reported as “colorless” and the color of colonies (Citrobacter koseri; with HCl) is reported as “gray-mauve”. For the same compound, the color of colonies (Citrobacter koseri; without HCl) was “colorless”, the color of colonies (Enterobacter cloacae; with HCl) was “gray-mauve” and the color of colonies (Enterobacter cloacae; without HCl) was “colorless”. The color of colonies (Enterococcus faecalis; with HCl) was “colorless”, the color of colonies (Enterococcus faecalis; without HCl) was “colorless” and the color of colonies (Escherichia coli; with HCl) was “gray-mauve”. The color of colonies (Escherichia coli; without HCl) was “colorless”, the color of colonies (Klebsiella pneumoniae; with HCl) was “gray-mauve” and the color of colonies (Klebsiella pneumoniae; without HCl) was “colorless”. For the same compound, the color of colonies (Listeria innocua; with HCl) was “colorless”, the color of colonies (Listeria innocua; without HCl) was “colorless” and the color of colonies (Proteus mirabilis; with HCl) was “gray-mauve”. For the same compound, the color of colonies (Proteus mirabilis; without HCl) was “colorless”, the color of colonies (Staphylococcus aureus; with HCl) was “colorless” and the color of colonies (Staphylococcus aureus; without HCl) was “colorless”. For the same compound, the color of colonies (Streptococcus agalactiae; with HCl) was “colorless” and the color of colonies (Streptococcus agalactiae; without HCl) was “colorless”.
In the case of `C[C@H](N)C(=O)Nc1ccc(-c2c3ccccc3nc3ccccc23)cc1` [L-Ala-APA], the color of colonies (Candida albicans; with HCl) is reported as “Colorless”, the color of colonies (Candida albicans; without HCl) is reported as “colorless” and the color of colonies (Citrobacter koseri; with HCl) is reported as “mauve”. For the same compound, the color of colonies (Citrobacter koseri; without HCl) was “colorless”, the color of colonies (Enterobacter cloacae; with HCl) was “mauve” and the color of colonies (Enterobacter cloacae; without HCl) was “colorless”. The color of colonies (Enterococcus faecalis; with HCl) was “colorless”, the color of colonies (Enterococcus faecalis; without HCl) was “colorless” and the color of colonies (Escherichia coli; with HCl) was “pale mauve”. The color of colonies (Escherichia coli; without HCl) was “colorless”, the color of colonies (Klebsiella pneumoniae; with HCl) was “mauve” and the color of colonies (Klebsiella pneumoniae; without HCl) was “colorless”. For the same compound, the color of colonies (Listeria innocua; with HCl) was “colorless”, the color of colonies (Listeria innocua; without HCl) was “colorless” and the color of colonies (Proteus mirabilis; with HCl) was “very pale-”. The color of colonies (Proteus mirabilis; without HCl) was “colorless”, the color of colonies (Staphylococcus aureus; with HCl) was “colorless” and the color of colonies (Staphylococcus aureus; without HCl) was “colorless”. For the same compound, the color of colonies (Streptococcus agalactiae; with HCl) was “colorless” and the color of colonies (Streptococcus agalactiae; without HCl) was “colorless”.
